ChEMBL document CHEMBL1126614, “Substituted benzamides with conformationally restricted side chains. 5. Azabicyclo[x.y.z] derivatives as 5-HT4 receptor agonists and gastric motility stimulants” (1993)
Converted amounts (≈) assume the structure as drawn.

Legend:
[1] = target: T1, Serotonin 3 (5-HT3) receptor (Rattus norvegicus) (UniProt P35563+Q9JJ16); assay: Tested for 5-HT 3 receptor antagonist potency by ability to inhibit the reflex bradycardia, the Bezold-Jarisch reflex in the rat; format: functional
[2] = target: 5-hydroxytryptamine receptor 4 (Cavia porcellus) (UniProt O70528); assay: Relative ability to increase cholinergically mediated contractions in isolated ileum of guinea pig; format: functional, tissue-based
[3] = target: 5-hydroxytryptamine receptor 4 (Rattus norvegicus) (UniProt Q62758); assay: Stimulatory activity of intragastric pressure was tested in the rat; format: functional
Canis familiaris = species: Canis familiaris; assay: Tested against rhythmic contractile activity in a Heidenhain pouch dog preparation; format: functional, Canis lupus familiaris
[4] = target: T1, Serotonin 3 (5-HT3) receptor (Rattus norvegicus); assay: Compound was tested for its 5-HT 3 receptor antagonist potency by their ability to inhibit the reflex bradycardia, the Bezold-Jarisch reflex in the rat; format: functional

Sequence of 5-hydroxytryptamine receptor 4 (Rattus norvegicus) (Q62758 whole entry): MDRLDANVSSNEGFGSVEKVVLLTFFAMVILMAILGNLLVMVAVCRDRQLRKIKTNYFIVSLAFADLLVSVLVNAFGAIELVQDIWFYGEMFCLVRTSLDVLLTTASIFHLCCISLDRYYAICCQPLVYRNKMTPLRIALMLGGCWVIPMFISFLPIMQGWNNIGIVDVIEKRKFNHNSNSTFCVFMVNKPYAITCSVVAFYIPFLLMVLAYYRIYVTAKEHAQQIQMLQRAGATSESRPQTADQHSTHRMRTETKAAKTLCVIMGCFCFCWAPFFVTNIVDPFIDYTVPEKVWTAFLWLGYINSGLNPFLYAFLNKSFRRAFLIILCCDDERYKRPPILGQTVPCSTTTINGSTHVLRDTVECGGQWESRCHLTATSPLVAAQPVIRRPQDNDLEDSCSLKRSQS
Sequence of 5-hydroxytryptamine receptor 4 (Cavia porcellus) (O70528 whole entry): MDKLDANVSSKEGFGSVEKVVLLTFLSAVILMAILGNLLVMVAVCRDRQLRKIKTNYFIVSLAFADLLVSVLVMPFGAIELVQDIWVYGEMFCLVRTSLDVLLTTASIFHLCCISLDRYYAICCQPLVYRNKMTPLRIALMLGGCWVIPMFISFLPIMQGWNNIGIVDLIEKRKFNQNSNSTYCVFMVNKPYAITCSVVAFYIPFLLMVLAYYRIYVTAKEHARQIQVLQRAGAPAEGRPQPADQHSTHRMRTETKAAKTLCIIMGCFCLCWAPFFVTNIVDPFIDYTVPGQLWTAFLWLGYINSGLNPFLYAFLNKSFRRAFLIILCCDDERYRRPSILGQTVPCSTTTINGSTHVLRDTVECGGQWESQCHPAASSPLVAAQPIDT

| Structure (SMILES) | ID50 [1] [mg/kg] | EC20 [2] [µg/mL] | ED50 [3] [mg/kg] | LAD (Canis familiaris) [mg/kg] | ID50 [4] [mg/kg] |
| --- | --- | --- | --- | --- | --- |
| COc1cc(N)c(Cl)cc1C(=O)NC1CC2CCCN(C2)C1 (configuration not stated) | 0.0055 | 0.002 (≈ 0.00618 µM) | > 1 | >0.1 | – |
| COc1cc(N)c(Cl)cc1C(=O)NC12CCC(CC1)NC2 | – | – | – | 0.01 | 0.086 |
| COc1cc(N)c(Cl)cc1C(=O)NC1CCN2CCSC1C2 (configuration not stated) | – | – | 0.5 | 0.01 | – |
| COc1cc(N)c(Cl)cc1C(=O)NC1CCNC(C)C12CCC2C (configuration not stated) | – | 0.056 (≈ 0.159 µM) | – | 0.05 | – |
| COc1cc(N)c(Cl)cc1C(=O)N[C@H]1CCN2CCC[C@@H]1C2 [listing 1 of 2 here] | – | – | – | 0.01 | – |
| COc1cc(N)c(Cl)cc1C(=O)NC1CC(C)NCC12CCC2 (configuration not stated) | – | 0.15 (≈ 0.444 µM) | – | 0.25 | – |
| COc1cc(N)c(Cl)cc1C(=O)NC1CCNCC12CCC2C (configuration not stated) | – | 0.018 (≈ 0.0533 µM) | – | 0.05 | – |
| COc1cc(N)c(Cl)cc1C(=O)N[C@H]1CCN2CCC[C@@H]1C2 [listing 2 of 2 here] | 0.0042 | 0.022 (≈ 0.0679 µM) | – | – | – |
| COc1cc(N)c(Cl)cc1C(=O)N[C@H]1CCN2CCC[C@@H]1C2 (relative stereo) [listing 1 of 2 here] | – | – | – | 0.05 | – |
| COc1cc(N)c(Cl)cc1C(=O)N[C@H]1CCN2CCC[C@@H]1C2 (relative stereo) [listing 2 of 2 here] | > 0.1 | 0.087 (≈ 0.269 µM) | – | – | – |
| COc1cc(N)c(Cl)cc1C(=O)NC1CCN2CCOC1C2 (single isomer, unassigned; (+)) [listing 1 of 2 here] | – | – | – | 0.01 | – |
| COc1cc(N)c(Cl)cc1C(=O)NC1CCN2CCOC1C2 (single isomer, unassigned; (+)) [listing 2 of 2 here] | 0.018 | – | 0.1 | – | – |
| COc1cc(N)c(Cl)cc1C(=O)NC1CCN2CCCC1C2 (single isomer, unassigned; (-)) | 0.0039 | 0.032 (≈ 0.0988 µM) | – | – | – |
| COc1cc(N)c(Cl)cc1C(=O)NC1CCN2CCOC1C2 (single isomer, unassigned; (-)) | 0.032 | – | 0.1 | – | – |
| COc1cc(N)c(Cl)cc1C(=O)NC1CCN2CCCC1C2 (stereo in doubt) | 0.0033 | 0.007 (≈ 0.0216 µM) | 0.1 | – | – |
| COc1cc(N)c(Cl)cc1C(=O)NC1CCN2CCOC1C2 (stereo in doubt) | 0.019 | – | 0.1 | – | – |
| COc1cc(N)c(Cl)cc1C(=O)NC1CCN2CCCC1C2 (stereo in doubt) [RENZAPRIDE] | – | – | – | 0.01 | – |
| COc1cc(N)c(Cl)cc1C(=O)NC1CCN2CCCC1C2 (stereo in doubt; 5d) | 0.03 | 0.0004 (≈ 0.00124 µM) | 0.1 | – | – |
| COc1cc(N)c(Cl)cc1C(=O)NC1CCN2CCCC1C2 (stereo in doubt; 5d) [RENZAPRIDE] | – | – | – | 0.005 | – |
| COc1cc(N)c(Cl)cc1C(=O)NC1CN2CCCC1C2 (stereo in doubt; endo) [listing 1 of 2 here] | – | – | – | 0.01 | – |
| COc1cc(N)c(Cl)cc1C(=O)NC1C2CC3CCN(C2)CC1C3 (stereo in doubt; endo) [listing 1 of 2 here] | – | – | – | 0.01 | – |
| COc1cc(N)c(Cl)cc1C(=O)NC1C2CC3CCN(C2)CC1C3 (stereo in doubt; endo) [listing 2 of 2 here] | 0.0034 | – | – | – | – |
| COc1cc(N)c(Cl)cc1C(=O)NC1CN2CCCC1C2 (stereo in doubt; endo) [listing 2 of 2 here] | 0.003 | 0.017 (≈ 0.0549 µM) | 0.06 | – | – |
| COc1cc(N)c(Cl)cc1C(=O)NC1CN2CCCC1C2 (stereo in doubt; exo) [listing 1 of 2 here] | – | – | – | 0.05 | – |
| COc1cc(N)c(Cl)cc1C(=O)NC1C2CC3CCN(C2)CC1C3 (stereo in doubt; exo) [listing 1 of 2 here] | – | – | – | 0.05 | – |
| COc1cc(N)c(Cl)cc1C(=O)NC1C2CC3CCN(C2)CC1C3 (stereo in doubt; exo) [listing 2 of 2 here] | 0.059 | – | – | – | – |
| COc1cc(N)c(Cl)cc1C(=O)NC1CN2CCCC1C2 (stereo in doubt; exo) [listing 2 of 2 here] | 0.045 | 0.047 (≈ 0.152 µM) | – | – | – |
| CCN(CC)CCNC(=O)c1cc(Cl)c(N)cc1OC [METOCLOPRAMIDE] | 0.5 | 0.12 (≈ 0.4 µM) | 1 | 0.25 | – |
